We go through 26 molecules from US10584115B2, “Substituted pyridine and pyrazine BMI-1 inhibitors” (PTC Therapeutics, Inc., priority 2013, dated 2020).

For the first experiment, the system named is Bmi-1 protein. Kind of experiment: Sandwich ELISA Assay (Bmi-1 protein level in HT-1080 cells after compound treatment). In kind it is cell-based. To be noted: Table 1, Bmi-1 sandwich ELISA, read-out: ELISA EC50 value for Bmi-1 protein. As for the experimental part: Cell Seeding and Compound Treatment (Day 1):
HT-1080 cells were seeded at 8000 cells/well (50 μL) in 96-well tissue culture plates. After the cells became adherent (3-4 hours), 2× diluted stocks of test compounds in 50 μL DMEM containing 1% DMSO (final DMSO concentration was 0.5%) were added and the plates were incubated at 37° C. under 5% CO2 for 40-48 hours.
ELISA Plate First Antibody Preparation (Day 2):
The First Antibody (Millipore Mouse, monoclonal to mouse Bmi-1, clone F6, catalog #05-637) diluted to […] in PBS was added (100 μL) to each well of a Nunc MaxiSorp 96-well ELISA plate. The plate was covered with a plate seal and allowed to stand overnight.
Cell Lysate Preparation (Day 3):
Fresh Lysis buffer (1×) was prepared on the day of the assay as follows: 1 mM EDTA, 150 mM NaCl, 0.5% Triton-X 100, 10 mM NaF, 20 mM B-Glycerophosphate, 1 mM DTT (in PBS, pH 7.2-7.4) and HALT protease inhibitor cocktail (lx) (Pierce #78410).
A standard curve was prepared at the following Bmi-1 concentrations: 8000, 4000, 2000, 1000, 500, 250, 125 and 0 pg/mL. The Bmi-1 Recombinant Protein Standard (Novus Biologicals PCGF4 Recombinant Protein (P01), catalog # H00000648-P01) used to prepare the standard curve was stored at −80° C. On first thaw, the Recombinant Protein Standard was diluted to 10 μg/L in Blocking Buffer (1% BSA in PBS; BSA: Fisher Scientific Catalog #1600-100). Aliquots were taken and refrozen at −80° C. The aliquots may be kept at 4° C. and reused after first thaw, but only within 1-2 weeks. The Recombinant Protein Standard contains a GST-fusion tag that appears at approximately 70 Kda on Western Blot.
The prepared ELISA plate was washed 3× with Wash Buffer (0.05% Tween-20 in PBS). The final wash was removed from the plate and the plate was blotted dry. Blocking Buffer (300 μL) (1% BSA in PBS) was added to each well. The plate was covered with a plate seal and incubated at room temperature for 1 hour. The blocked plate was washed 3× with Wash Buffer, then the final wash was removed and the plate was blotted dry. The previously prepared samples and standards were added ([…]) and the plate was covered with a plate seal and incubated at 4° C. overnight.
The prepared ELISA plate was removed from incubation and allowed to stand at room temperature for 30 minutes, then washed and blotted dry. The Second Antibody (Cell Signaling Rabbit anti-Bmi-1, Cat #2830) diluted to 1:600 in Blocking Buffer was added (100 μL) to each well, except as needed for background control wells. The plate was covered with a plate seal and incubated for 1.5 hrs at room temperature.
The ELISA plate was washed and blotted dry as previously described. The Third Antibody (Cell Signaling HRP conjugated anti-rabbit IgG (CellSignaling, Cat #:7074) diluted to 1:300 in Blocking Buffer was added (100 μL) to each well, except as needed for background control wells. The plate was incubated for 1 hr at room temperature.
The plate was washed and blotted dry, then a previously prepared TMB substrate (TMB substrate kit, Pierce catalog #34021) (prepared by mixing kit reagents 1:1) (100 μL) was added per well. The plate was incubated for 20-30 minutes at room temperature in the dark, then Stop Solution (2 M sulfuric acid in water) (50 μL) was added per well. The plates were read at OD450 (experimental) and OD570 (reference).
As for `FC(F)(F)Oc1ccc(Nc2cccc(-n3c(C(F)(F)F)nc4ccccc43)n2)cc1` [Cpd 39, N-[4-(trifluoromethoxy)phenyl]-6-[2-(trifluoromethyl)-1H-benzimidazol-1-yl]pyridin-2-amine], the 50% effective concentration (EC50) (usually the midpoint of the concentration-response curve) was in the range of 0.1 to 3 µM.
Turning to `FC(F)(F)c1ccc(Nc2cccc(-n3c(C(F)(F)F)nc4ccccc43)n2)cc1` [Cpd 40, 6-[2-(trifluoromethyl)-1H-benzimidazol-1-yl]-N-[4-(trifluoromethyl)phenyl]pyridin-2-amine], the EC50 was in the range of 0.1 to 3 µM.
Still for that read-out and setting: in the case of `COc1ccc2nc(C(F)(F)F)c(-c3cncc(Nc4ccc(OC(F)(F)F)cc4)n3)n2c1` [Cpd 45, 6-[6-methoxy-2-(trifluoromethyl)imidazo[1,2-a]pyridin-3-yl]-N-[4-(trifluoromethoxy)phenyl]pyrazin-2-amine] it was 0.01 to 0.1 µM; in that of `COc1ccc2nc(C(F)(F)F)c(-c3cncc(Nc4ccc(C(F)(F)F)cc4)n3)n2c1` [Cpd 46, 6-[6-methoxy-2-(trifluoromethyl)imidazo[1,2-a]pyridin-3-yl]-N-[4-(trifluoromethyl)phenyl]pyrazin-2-amine], 0.01 to 0.1 µM.
`COc1ccc(Nc2cncc(-c3c(C(F)(F)F)nc4ccc(OC)cn34)n2)cc1` [Cpd 47, N-(4-methoxyphenyl)-6-[6-methoxy-2-(trifluoromethyl)imidazo[1,2-a]pyridin-3-yl]pyrazin-2-amine]: the EC50 lay within 0.001 to 0.01 µM.
Still for that read-out and setting: in the case of `COc1ccc2nc(C(F)(F)F)c(-c3cncc(Nc4ccc(OC(F)F)cc4)n3)n2c1` [Cpd 48, N-[4-(difluoromethoxy)phenyl]-6-[6-methoxy-2-(trifluoromethyl)imidazo[1,2-a]pyridin-3-yl]pyrazin-2-amine] it was 0.001 to 0.01 µM.
Still for that read-out and setting: as for `COc1ccc2nc(C(F)(F)F)c(-c3cncc(Nc4ccc(C#N)cc4)n3)n2c1` [Cpd 49, 4-({6-[6-methoxy-2-(trifluoromethyl)imidazo[1,2-a]pyridin-3-yl]pyrazin-2-yl}amino)benzonitrile], the figure is 0.1 to 3 µM; as for `N#Cc1ccc(Nc2cccc(-c3c(C(F)(F)F)nc4ccccn34)n2)cc1` [Cpd 50, 4-({6-[2-(trifluoromethyl)imidazo[1,2-a]pyridin-3-yl]pyridin-2-yl}amino)benzonitrile], 0.01 to 0.1 µM.
Still for that read-out and setting: as for `Fc1ccc2nc(C(F)(F)F)c(-c3cncc(Nc4ccc(OC(F)(F)F)cc4)n3)n2c1` [Cpd 55, 6-[6-fluoro-2-(trifluoromethyl)imidazo[1,2-a]pyridin-3-yl]-N-[4-(trifluoromethoxy)phenyl]pyrazin-2-amine], the figure is 0.01 to 0.1 µM; as for `Fc1ccc2nc(C(F)(F)F)c(-c3cncc(Nc4ccc(OC(F)F)cc4)n3)n2c1` [Cpd 56, N-[4-(difluoromethoxy)phenyl]-6-[6-fluoro-2-(trifluoromethyl)imidazo[1,2-a]pyridin-3-yl]pyrazin-2-amine], 0.001 to 0.01 µM.
`COc1ccc(Nc2cncc(-c3c(C(F)(F)F)nc4ccc(F)cn34)n2)cc1` [Cpd 57, 6-[6-fluoro-2-(trifluoromethyl)imidazo[1,2-a]pyridin-3-yl]-N-(4-methoxyphenyl)pyrazin-2-amine]: the concentration for a half-maximal effect (EC50) is less than 0.001 µM.
With `Fc1ccc2nc(C(F)(F)F)c(-c3cncc(Nc4ccc(C(F)(F)F)cc4)n3)n2c1` [Cpd 58, 6-[6-fluoro-2-(trifluoromethyl)imidazo[1,2-a]pyridin-3-yl]-N-[4-(trifluoromethyl)phenyl]pyrazin-2-amine], the half-maximal effective concentration (EC50) lay within 0.001 to 0.01 µM.
The same measure, in the same setting: in the case of `O=[N+]([O-])c1ccc(Nc2cncc(-c3c(C(F)(F)F)nc4ccccn34)n2)cc1` [Cpd 59, N-(4-nitrophenyl)-6-[2-(trifluoromethyl)imidazo[1,2-a]pyridin-3-yl]pyrazin-2-amine] it was 0.1 to 3 µM; in that of `Nc1ccc(Nc2cncc(-c3c(C(F)(F)F)nc4ccccn34)n2)cc1` [Cpd 60, N-{6-[2-(trifluoromethyl)imidazo[1,2-a]pyridin-3-yl]pyrazin-2-yl}benzene-1,4-diamine], 0.01 to 0.1 µM.
On the same count and under the same terms, as for `FC(F)(F)c1ccc(Nc2cncc(-c3c(C(F)(F)F)nc4ccccn34)n2)cn1` [Cpd 70, 6-[2-(trifluoromethyl)imidazo[1,2-a]pyridin-3-yl]-N-[6-(trifluoromethyl)pyridin-3-yl]pyrazin-2-amine], the figure is 0.01 to 0.1 µM.
For the molecule `FC(F)(F)c1ccc(Nc2cccc(-c3c(C(F)(F)F)nc4ccccn34)n2)cn1` [Cpd 71, 6-[2-(trifluoromethyl)imidazo[1,2-a]pyridin-3-yl]-N-[6-(trifluoromethyl)pyridin-3-yl]pyridin-2-amine], the EC50 lay within 0.001 to 0.01 µM.
For `FC(F)(F)Oc1ccc(Nc2cncc(-c3c(C(F)(F)F)nc4ncccn34)n2)cc1` [Cpd 100, N-[4-(trifluoromethoxy)phenyl]-6-[2-(trifluoromethyl)imidazo[1,2-a]pyrimidin-3-yl]pyrazin-2-amine], the concentration for a half-maximal effect (EC50) fell in the range of 0.1 to 3 µM.
On to `COc1cc(Nc2ccc(C(F)(F)F)cc2)nc(-c2c(C(F)(F)F)nc3ccccn23)c1` [Cpd 107, 4-methoxy-6-[2-(trifluoromethyl)imidazo[1,2-a]pyridin-3-yl]-N-[4-(trifluoromethyl)phenyl]pyridin-2-amine], for which the EC50 lay within 0.1 to 3 µM.
`FC(F)Oc1ccc(Nc2cncc(-c3c(C(F)(F)F)nc4ncccn34)n2)cc1` [Cpd 109, N-[4-(difluoromethoxy)phenyl]-6-[2-(trifluoromethyl)imidazo[1,2-a]pyrimidin-3-yl]pyrazin-2-amine]: the EC50 fell in the range of 0.01 to 0.1 µM.
Same read-out and setting: in the case of `COc1cc(Nc2ccc(C(F)(F)F)cc2)nc(-c2c(C(=O)O)nc3ccccn23)c1` [Cpd 124, 3-(4-methoxy-6-{[4-(trifluoromethyl)phenyl]amino}pyridin-2-yl)imidazo[1,2-a]pyridine-2-carboxylic acid] it was 0.01 to 0.1 µM.
For the molecule `COc1cc(Nc2ccc(OC(F)F)cc2)nc(-c2c(C(F)(F)F)nc3ccccn23)c1` [Cpd 125, N-[4-(difluoromethoxy)phenyl]-4-methoxy-6-[2-(trifluoromethyl)imidazo[1,2-a]pyridin-3-yl]pyridin-2-amine], the EC50 fell in the range of 0.1 to 3 µM.
On the same count and under the same terms, in the case of `Cc1nc2ccccc2n1-c1cc(C#N)cc(Nc2ccc(OC(F)F)cc2)n1` [Cpd 135, 2-{[4-(difluoromethoxy)phenyl]amino}-6-(2-methyl-1H-benzimidazol-1-yl)pyridine-4-carbonitrile] it was 0.01 to 0.1 µM.

The same experiment, now with this note: read-out: ELISA EC50 value for Bmi-1 protein, Table 1, Bmi-1 sandwich ELISA.
In the case of `COc1ccc(Nc2cc(C#N)cc(-c3c(C(F)(F)F)nc4ccccn34)n2)cc1` [Cpd 42, 2-[(4-methoxyphenyl)amino]-6-[2-(trifluoromethyl)imidazo[1,2-a]pyridin-3-yl]pyridine-4-carbonitrile], the EC50 fell in the range of 0.001 to 0.01 µM.
Regarding `FC(F)(F)c1ccc(Nc2cccc(-c3c(C(F)(F)F)nc4ncccn34)n2)cc1` [Cpd 64, 6-[2-(trifluoromethyl)imidazo[1,2-a]pyrimidin-3-yl]-N-[4-(trifluoromethyl)phenyl]pyridin-2-amine], the EC50 was 0.01 to 0.1 µM.
On the same count and under the same terms, as for `FC(F)(F)c1ccc(Nc2cncc(-c3c(C(F)(F)F)nc4ncccn34)n2)cc1` [Cpd 67, 6-[2-(trifluoromethyl)imidazo[1,2-a]pyrimidin-3-yl]-N-[4-(trifluoromethyl)phenyl]pyrazin-2-amine], the figure is 0.01 to 0.1 µM.
Take `Cc1nc2ccccc2n1-c1cc(C#N)cc(Nc2ccc(C(F)(F)F)cc2)n1` [Cpd 132, 2-(2-methyl-1H-benzimidazol-1-yl)-6-{[4-(trifluoromethyl)phenyl]amino}pyridine-4-carbonitrile]: the EC50 lay within 0.01 to 0.1 µM.
